The nature of series [1]: PK analysis of rats. In kind it is in vivo. The settings on record: p.o. (10 mg/kg); for AUC(0-t) / Cmax: rat, plasma, po; for AUC(0-t): read-out: Curve area AUC0-24 h; for Cmax: read-out: Drug concentration in blood Cmax. Here is the method: In the present invention, the pharmacokinetics experiment of the compounds in rats was performed using the SD rats (Vitolihua).
(1) Mode of administration: single gavage administration and intravenous injection administration.
(2) Dosage: 10 mg/kg in the gavage administration, 3 mg/kg in the intravenous injection administration.
Gavage administration: before administration, 15 min, 30 min, 1 h, 2 h, 4 h, 6 h, 8 h, 24 h; […]
(4) Sample processing: 200 μL of orbital blood was collected at each sampling time point. After anticoagulation with heparin, the blood was centrifuged at 5500 rpm for 10 min, and 60 μL of the supernatant was taken and put into the refrigerator at −80° C. for waiting for testing.
Samples obtained after administration of Compound 1 were tested using 4000 LC-MS/MS analyzer, wherein, the chromatographic separation conditions for testing were:
Samples obtained after administration of Compound 7 were tested using 4000 LC-MS/MS analyzer, wherein, the chromatographic separation conditions for testing were:
Samples obtained after administration of Compound 16 were tested using 4000 LC-MS/MS analyzer, wherein, the chromatographic separation conditions for testing were: […]

Series [2] has as its target T1, FGFR4 kinase (Homo sapiens (Human), UniProt P22455). Description: biochemical.
The test system of series [3] is Hepatoma cell Hep3B (high expression of FGFR4 and FGF19). Description: Hepatoma cell proliferation inhibition experiment (MTS method). In kind it is cell-based. The settings on record: for IC50: Homo sapiens, Hep3B, read-out: Hep3B(IC50 μM). The source says:
In this experiment, the MTS method was used to test the inhibitory effect of the compounds on the proliferation of Hepatoma cell Hep3B (high expression of FGFR4 and FGF19), and the half inhibitory concentration IC50 of the compounds to Hep3B was obtained. The Hep3B cell line was purchased from ATCC, and the complete culture medium of the Hep3B cell line was MEM+10% FBS+1% PS. MEM cell culture medium, fetal bovine serum, and trypsin were purchased from Gibco, cell culture flasks were purchased from Greiner, and disposable Cell Counting Plate and Taittinger Blue Solution were purchased from Bio-Rad.
(1) 100 μl Hepatoma cell Hep3B suspension was seeded in a 96-well cell culture plate, and the density of each well was 2.0×10^4 cells/ml.
(3) A mixture of MTS (3-(4,5-dimethylthiazol-2-yl)-5-(3-carboxymethoxyphenyl)-2-(4-sulfophenyl)-2H-tetrazolium)/PMS (phenazine methosulfate) was added into each well for coloration, and MTS/PMS in the mixture was at a ratio of 20:1 (ml:ml). 30 μl of the mixture was added into each well of the culture plate above mentioned in step (2), then the culture plate was incubated for 3 h in the incubator.
(5) The inhibition rate was calculated by the […];
(6) According to the inhibition rate of the different concentrations, the IC50 values of the compounds were obtained by curve fitting.
(In general: Formazan colour is commonly taken as a measure of viable cells.)

Series [4] has as its target T1, FGFR4 kinase.

Where a name gives a salt, the structure may show the parent alone. Read-outs that look alike come from different tables or passages of the source.

The source of these data is patent US11136320B2, “Fused ring derivative used as FGFR4 inhibitor” (JACOBIO PHARMACEUTICALS CO., LTD., priority 2019, dated 2021).

T1 sequence (P22455 22-802): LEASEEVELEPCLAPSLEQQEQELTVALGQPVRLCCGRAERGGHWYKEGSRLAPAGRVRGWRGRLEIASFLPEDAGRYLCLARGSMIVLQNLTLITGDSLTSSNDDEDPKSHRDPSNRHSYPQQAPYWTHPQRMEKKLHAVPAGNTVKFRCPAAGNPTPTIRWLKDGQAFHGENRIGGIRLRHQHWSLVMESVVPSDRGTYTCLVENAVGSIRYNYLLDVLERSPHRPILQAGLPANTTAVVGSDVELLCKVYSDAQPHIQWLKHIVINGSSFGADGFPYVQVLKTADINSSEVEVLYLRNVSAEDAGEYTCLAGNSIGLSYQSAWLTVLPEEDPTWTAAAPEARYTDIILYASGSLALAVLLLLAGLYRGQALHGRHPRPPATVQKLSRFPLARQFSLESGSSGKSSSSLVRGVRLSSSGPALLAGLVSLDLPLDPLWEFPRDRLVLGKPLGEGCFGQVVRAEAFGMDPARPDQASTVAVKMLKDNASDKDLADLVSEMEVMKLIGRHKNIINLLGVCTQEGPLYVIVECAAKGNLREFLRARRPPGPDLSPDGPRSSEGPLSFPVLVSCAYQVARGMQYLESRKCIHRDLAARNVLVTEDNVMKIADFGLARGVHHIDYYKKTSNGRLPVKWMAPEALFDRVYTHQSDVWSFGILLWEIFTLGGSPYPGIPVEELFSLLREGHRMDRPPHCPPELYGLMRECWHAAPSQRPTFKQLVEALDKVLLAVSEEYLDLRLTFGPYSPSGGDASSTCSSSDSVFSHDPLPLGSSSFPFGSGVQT

As to `CSCCNc1cc(NC(=O)N2CCCc3cc(CN4CCN(C)CC4=O)c(C=O)nc32)ncc1C#N` [Compound 1], the “exposure amount AUC0-24 h and maximum drug concentration in blood Cmax compared with the reference compound” value in series [1] (SD rats) is on record as “significantly higher than the reference compound”. Besides, the AUC(0-t) in series [1] (Sprague-Dawley (SD)) was 2370 ng·h/mL. In series [1] (Sprague-Dawley (SD)), the Cmax stood at 833 ng/mL. The half-inhibitory concentration (IC50) (usually the concentration that gives 50% inhibition) in series [2] was found to be 1.5 nM; in series [3] (120 h incubation) it was 0.023 µM.

Consider `CSCCOc1cc(NC(=O)N2CCCc3cc(CN4CCN(C)CC4=O)c(C=O)nc32)ncc1C#N` [Compound 2], for which, in series [3] (120 h incubation), the IC50 is 0.028 µM.

For the compound `CO[C@@H]1CCN(Cc2cc3c(nc2C=O)N(C(=O)Nc2cc(NCCSC)c(C#N)cn2)CCC3)C1=O` [Compound 8, (R)-N-(5-cyano-4-((2-(methylthio)ethyl)amino)pyridin-2-yl)-7-formyl-6-((3-methoxy-2-oxopyrrolidin-1-yl)methyl)-3,4-dihydro-1,8-naphthyridine-1(2H)-carboxamide], in series [3], the “inhibitory effect on Hepatoma cell Hep3B compared with the reference compound” value was “better inhibitory effect”. For the same compound, the IC50 in series [3] (120 h incubation) was 0.008 µM.

Take `CO[C@@H]1CCN(Cc2cc3c(nc2C=O)N(C(=O)Nc2cc(N[C@H](C)CSC)c(C#N)cn2)CCC3)C1=O` [Compound 9, N-(5-cyano-4-(((R)-1-(methylthio)propan-2-yl)amino)pyridin-2-yl)-7-formyl-6-(((R)-3-methoxy-2-oxopyrrolidin-1-yl)methyl)-3,4-dihydro-1,8-naphthyridine-1(2H)-carboxamide]: the “inhibitory effect on Hepatoma cell Hep3B compared with the reference compound” value in series [3] was “better inhibitory effect”. Further, the concentration for half-maximal inhibition (IC50) in series [3] (120 h incubation) was 0.009 µM.

Turning to `CSC[C@H](C)Nc1cc(NC(=O)N2CCCc3cc(CN4CCN(C)CC4=O)c(C=O)nc32)ncc1C#N` [Compound 11, (S)-N-(5-cyano-4-((1-(methylthio)propan-2-yl)amino)pyridin-2-yl)-7-formyl-6-((4-methyl-2-oxopiperazin-1-yl)methyl)-3,4-dihydro-1,8-naphthyridine-1(2H)-carboxamide], the IC50 in series [3] (120 h incubation) was determined as 0.035 µM.

On to `CSCCNc1cc(NC(=O)N2CCCc3cc(CN4CCCCOC4=O)c(C=O)nc32)ncc1C#N` [Compound 16, N-(5-cyano-4-((2-(methylthio)ethyl)amino)pyridin-2-yl)-7-formyl-6-((2-oxo-1,3-oxazepan-3-yl)methyl)-3,4-dihydro-1,8-naphthyridine-1(2H)-carboxamide], for which, in series [1] (SD rats), the “exposure amount AUC0-24 h and maximum drug concentration in blood Cmax compared with the reference compound” value was “significantly higher than the reference compound”; the AUC(0-t) amounted to 3670 ng·h/mL; the Cmax was found to be 936 ng/mL. In addition, in series [3] (120 h incubation), the IC50 stood at 0.029 µM.

As for `CN1CCN(Cc2cc3c(nc2C=O)N(C(=O)Nc2cc(NC4CCSCC4)c(C#N)cn2)CCC3)C(=O)C1` [Compound 20, N-(5-cyano-4-((tetrahydro-2H-thiopyran-4-yl)amino)pyridin-2-yl)-7-formyl-6-((4-methyl-2-oxopiperazin-1-yl)methyl)-3,4-dihydro-1,8-naphthyridine-1(2H)-carboxamide], in series [1] (SD rats), the “exposure amount AUC0-24 h and maximum drug concentration in blood Cmax compared with the reference compound” value is given as “significantly higher than the reference compound”; the AUC(0-t) amounted to 2000 ng·h/mL; the Cmax was found to be 514 ng/mL. The IC50 in series [2] came to 4.4 nM. In series [3], the “inhibitory effect on Hepatoma cell Hep3B compared with the reference compound” value is on record as “better inhibitory effect”. Further, the IC50 in series [3] (120 h incubation) came out at 0.021 µM.

With `CN1CCN(Cc2cc3c(nc2C=O)N(C(=O)Nc2cc(NCc4cncs4)c(C#N)cn2)CCC3)C(=O)C1` [Compound 55, N-(5-cyano-4-((thiazol-5-yl-methyl)amino)pyridin-2-yl)-7-formyl-6-((4-methyl-2-oxopiperazin-1-yl)methyl)-3,4-dihydro-1,8-naphthyridine-1(2H)-carboxamide], the IC50 in series [2] came out at 3 nM.

As for `Cc1ccc(CNc2cc(NC(=O)N3CCCc4cc(CN5CCN(C)CC5=O)c(C=O)nc43)ncc2C#N)s1` [Compound 58, N-(5-cyano-4-(((5-methyl-thiophen-2-yl)methyl)amino)pyridin-2-yl)-7-formyl-6-((4-methyl-2-oxopiperazin-1-yl)methyl)-3,4-dihydro-1,8-naphthyridine-1(2H)-carboxamide], in series [2], inhibition was half-maximal at 2.1 nM (IC50). Moreover, the “inhibitory effect on FGFR4 compared with the reference compound” value in series [4] is “better inhibitory effect on FGFR4 than the reference compound”.

`CN1CCN(Cc2cc3c(nc2C=O)N(C(=O)Nc2cc(NCc4cscn4)c(C#N)cn2)CCC3)C(=O)C1` [Compound 59, N-(5-Cyano-4-((thiazol-4-yl-methyl)amino)pyridin-2-yl)-7-formyl-6-((4-methyl-2-oxopiperazin-1-yl)methyl)-3,4-dihydro-1,8-naphthyridine-1(2H)-carboxamide] displayed an IC50 in series [2] of 2.1 nM. For the same compound, the “inhibitory effect on FGFR4 compared with the reference compound” value in series [4] is listed as “better inhibitory effect on FGFR4 than the reference compound”.

In series [2], `CC(Nc1cc(NC(=O)N2CCCc3cc(CN4CCN(C)CC4=O)c(C=O)nc32)ncc1C#N)c1nccs1` (stereo not drawn) [Compound 60, N-(5-cyano-4-((1-(thiazol-2-yl)ethyl)amino)pyridin-2-yl)-7-formyl-6-((4-methyl-2-oxopiperazin-1-yl)methyl)-3,4-dihydro-1,8-naphthyridine-1(2H)-carboxamide] had an IC50 of 3 nM.

For the compound `CN1CCN(Cc2cc3c(nc2C=O)N(C(=O)Nc2cc(NCc4ccsn4)c(C#N)cn2)CCC3)C(=O)C1` [Compound 68, N-(5-Cyano-4-((isothiazol-3-yl-methyl)amino)pyridin-2-yl)-7-formyl-6-((4-methyl-2-oxopiperazin-1-yl)methyl)-3-1,4-dihydro-1,8-naphthyridine-1(2H)-carboxamide], the IC50 in series [3] (120 h incubation) was found to be 0.026 µM.

Regarding `CCSCCNc1cc(NC(=O)N2CCCc3cc(CN4CCN(C)CC4=O)c(C=O)nc32)ncc1C#N` [Compound 71, N-(5-cyano-44 (2-(ethylthio)ethypamino)pyridin-2-yl)-7-formyl-64 (4-methyl-2-oxopiperazin-1-yl)methyl)-3,4-dihydro-1,8-naphthyridine-1 (2H)-carboxamide hydrochloride], the “exposure amount AUC0-24 h and maximum drug concentration in blood Cmax compared with the reference compound” value in series [1] (SD rats) was “significantly higher than the reference compound”. Besides, in series [1] (Sprague-Dawley (SD)), the AUC(0-t) stood at 1950 ng·h/mL. Also, the Cmax in series [1] (Sprague-Dawley (SD)) was 657 ng/mL. Further, the figures for the IC50 in series [2] and in series [3] (120 h) were 2.4 nM and 0.049 µM, respectively.

For `CSCCNc1cc(NC(=O)N2CCCc3cc(CN(C)C(=O)[C@H]4CCCO4)c(C=O)nc32)ncc1C#N` [Compound 74, (R)-N-(5-cyano-4-((2-(methylthio)ethyl)amino)pyridin-2-yl)-7-formyl-6-((N-methyltetrahydrofuran-2-carboxamido)methyl)-3,4-dihydro-1,8-naphthyridine-1(2H)-carboxamide hydrochloride], the IC50 in series [3] (120 h incubation) is 0.06 µM.

For `CSCC(C)Nc1cc(NC(=O)N2CCCc3cc(CN4CCN(C)CC4=O)c(C=O)nc32)ncc1C#N` (stereo not drawn) [Compound 82, N-(5-cyano-4-((1-(methyl-thio)propan-2-yl)amino)pyridin-2-yl)-7-formyl-6-((4-methyl-2-oxopiperazin-1-yl)methyl)-3,4-dihydro-1,8-naphthyridine-1(2H)-carboxamide], the “inhibitory effect on Hepatoma cell Hep3B compared with the reference compound” value in series [3] was “better inhibitory effect”. For the same compound, the IC50 in series [3] (120 h incubation) was 0.02 µM.
